Numbers after ± are expanded uncertainties.
Conditions: Liquid

CCCCC(C)O (configuration not stated) [2-hexanol]
Conditions	mass density [kg/m3]
313.13 K, 1010 kPa	799.26 ± 0.62
313.13 K, 2006 kPa	800.05 ± 0.64
313.13 K, 2999 kPa	800.83 ± 0.66
313.13 K, 4008 kPa	801.59 ± 0.68
313.13 K, 4999 kPa	802.35 ± 0.7
313.13 K, 5986 kPa	803.12 ± 0.72
313.13 K, 7000 kPa	803.86 ± 0.74
313.13 K, 8010 kPa	804.64 ± 0.77
313.13 K, 9026 kPa	805.38 ± 0.79
313.13 K, 10004 kPa	806.09 ± 0.81
313.13 K, 11005 kPa	806.84 ± 0.83
313.13 K, 12001 kPa	807.56 ± 0.85
313.13 K, 13010 kPa	808.28 ± 0.88
313.13 K, 14002 kPa	808.98 ± 0.9
313.13 K, 14998 kPa	809.67 ± 0.92
313.13 K, 16001 kPa	810.39 ± 0.94
313.13 K, 17006 kPa	811.08 ± 0.97
313.13 K, 18000 kPa	811.7 ± 0.99
313.13 K, 19005 kPa	812.39 ± 1
313.13 K, 20015 kPa	813.1 ± 1
313.13 K, 21029 kPa	813.74 ± 1.1
313.13 K, 22004 kPa	814.4 ± 1.1
323.09 K, 1037 kPa	791 ± 0.63
323.09 K, 2000 kPa	791.79 ± 0.65
323.09 K, 3010 kPa	792.63 ± 0.67
323.09 K, 4029 kPa	793.48 ± 0.69
323.09 K, 5004 kPa	794.27 ± 0.71
323.09 K, 6020 kPa	795.1 ± 0.74
323.09 K, 7007 kPa	795.84 ± 0.76
323.09 K, 8009 kPa	796.68 ± 0.78
323.09 K, 9017 kPa	797.48 ± 0.81
323.09 K, 10003 kPa	798.25 ± 0.83
323.09 K, 11001 kPa	799 ± 0.85
323.09 K, 12000 kPa	799.77 ± 0.88
323.09 K, 13021 kPa	800.56 ± 0.9
323.09 K, 14001 kPa	801.3 ± 0.92
323.09 K, 15002 kPa	802 ± 0.94
323.09 K, 16000 kPa	802.74 ± 0.97
323.09 K, 17004 kPa	803.48 ± 0.99
323.09 K, 18008 kPa	804.21 ± 1
323.09 K, 19001 kPa	804.9 ± 1.1
323.09 K, 20011 kPa	805.62 ± 1.1
323.09 K, 21003 kPa	806.31 ± 1.1
323.09 K, 22004 kPa	807.01 ± 1.1
333.04 K, 1055 kPa	782.56 ± 0.64
333.04 K, 2007 kPa	783.43 ± 0.66
333.04 K, 3005 kPa	784.28 ± 0.68
333.04 K, 4007 kPa	785.21 ± 0.71
333.04 K, 5015 kPa	786.06 ± 0.73
333.04 K, 6009 kPa	786.93 ± 0.75
333.04 K, 7006 kPa	787.77 ± 0.78
333.04 K, 7998 kPa	788.61 ± 0.8
333.04 K, 9006 kPa	789.47 ± 0.82
333.04 K, 10004 kPa	790.32 ± 0.85
333.04 K, 11007 kPa	791.11 ± 0.87
333.04 K, 12012 kPa	791.93 ± 0.9
333.04 K, 13003 kPa	792.72 ± 0.92
333.04 K, 14008 kPa	793.51 ± 0.95
333.04 K, 15005 kPa	794.3 ± 0.97
333.04 K, 16001 kPa	795.06 ± 1
333.04 K, 17006 kPa	795.85 ± 1
333.04 K, 18010 kPa	796.61 ± 1.1
333.04 K, 19002 kPa	797.35 ± 1.1
333.04 K, 20000 kPa	798.08 ± 1.1
333.04 K, 21000 kPa	798.82 ± 1.1
333.04 K, 22004 kPa	799.56 ± 1.2
342.98 K, 1032 kPa	774.05 ± 0.65
342.98 K, 2015 kPa	775.01 ± 0.67
342.98 K, 3012 kPa	775.95 ± 0.69
342.98 K, 4017 kPa	776.87 ± 0.72
342.98 K, 5013 kPa	777.79 ± 0.74
342.98 K, 6012 kPa	778.72 ± 0.77
342.98 K, 7025 kPa	779.62 ± 0.79
342.98 K, 8000 kPa	780.47 ± 0.82
342.98 K, 9000 kPa	781.35 ± 0.84
342.98 K, 9996 kPa	782.25 ± 0.87
342.98 K, 11020 kPa	783.12 ± 0.89
342.98 K, 11999 kPa	783.92 ± 0.92
342.98 K, 12996 kPa	784.76 ± 0.94
342.98 K, 14007 kPa	785.6 ± 0.97
342.98 K, 15003 kPa	786.41 ± 1
342.98 K, 16005 kPa	787.17 ± 1
342.98 K, 17002 kPa	787.98 ± 1.1
342.98 K, 18010 kPa	788.76 ± 1.1
342.98 K, 19005 kPa	789.49 ± 1.1
342.98 K, 20010 kPa	790.27 ± 1.1
342.98 K, 21006 kPa	791 ± 1.2
342.98 K, 22005 kPa	791.75 ± 1.2
352.86 K, 1053 kPa	765.06 ± 0.66
352.86 K, 2014 kPa	766.05 ± 0.68
352.86 K, 3019 kPa	767.09 ± 0.71
352.86 K, 4033 kPa	768.08 ± 0.73
352.86 K, 4996 kPa	769.01 ± 0.76
352.86 K, 6006 kPa	770.06 ± 0.78
352.86 K, 7013 kPa	771.02 ± 0.81
352.86 K, 8004 kPa	771.95 ± 0.84
352.86 K, 9035 kPa	772.93 ± 0.86
352.86 K, 10009 kPa	773.84 ± 0.89
352.86 K, 11007 kPa	774.75 ± 0.92
352.86 K, 12007 kPa	775.66 ± 0.94
352.86 K, 12999 kPa	776.54 ± 0.97
352.86 K, 14012 kPa	777.47 ± 1
352.86 K, 15010 kPa	778.33 ± 1
352.86 K, 16003 kPa	779.21 ± 1.1
352.86 K, 17002 kPa	780.07 ± 1.1
352.86 K, 18017 kPa	780.92 ± 1.1
352.86 K, 19005 kPa	781.75 ± 1.1
352.86 K, 20014 kPa	782.58 ± 1.2
352.86 K, 21013 kPa	783.39 ± 1.2
352.86 K, 22010 kPa	784.18 ± 1.2
362.73 K, 1075 kPa	754.97 ± 0.67
362.73 K, 2006 kPa	756.02 ± 0.7
362.73 K, 3018 kPa	757.16 ± 0.72
362.73 K, 4034 kPa	758.26 ± 0.75
362.73 K, 5016 kPa	759.29 ± 0.78
362.73 K, 6066 kPa	760.41 ± 0.81
362.73 K, 6998 kPa	761.37 ± 0.83
362.73 K, 8041 kPa	762.44 ± 0.86
362.73 K, 9014 kPa	763.43 ± 0.89
362.73 K, 10001 kPa	764.37 ± 0.91
362.73 K, 11026 kPa	765.39 ± 0.94
362.73 K, 12000 kPa	766.35 ± 0.97
362.73 K, 13010 kPa	767.31 ± 1
362.73 K, 13999 kPa	768.28 ± 1
362.73 K, 15006 kPa	769.21 ± 1.1
362.73 K, 16006 kPa	770.12 ± 1.1
362.73 K, 17005 kPa	771.02 ± 1.1
362.73 K, 18000 kPa	771.92 ± 1.2
362.73 K, 19003 kPa	772.82 ± 1.2
362.73 K, 20017 kPa	773.7 ± 1.2
362.73 K, 21006 kPa	774.56 ± 1.2
362.73 K, 22010 kPa	775.42 ± 1.3

— the NIST ThermoML archive (doi:10.1021/je700145e)
